Experimental data taken from patent publication US20250326744A1, “PIPERAZINE DERIVATIVE OR SALT THEREOF, AND PHARMACEUTICAL COMPOSITION” (priority 2022, published 2025).
Where a name gives a salt, the structure may show the parent alone.

Tests used:
mexY (EC) strain = assay: Efflux ability inhibition effect on drug efflux pump MexY (Test Examples 1 and 3): proliferation (OD595) of mexY (EC) strain with EM or LVFX at 1/4 MIC, EC75; assay type: cell-based, Escherichia coli; conditions: Table 51, Test Example 1, 16 to 20 hours culture, OD595; for EC75, mexY (EC) strain, EM: combined with EM at 1/4 MIC; for EC75, mexY (EC) strain, LVFX: combined with LVFX at 1/4 MIC
Procedure: The efflux ability inhibition effect of the test compound on the drug efflux pump was evaluated using the bacterial proliferative ability in the presence of EM or LVFX as an index.
EM is a macrolide antibacterial agent and is a drug that is discharged outside the bacteria by MexB and MexY LVFX is a quinolone antibacterial agent and is a drug that is discharged outside the bacteria by MexB and MexY In a case where the test compound has an efflux ability inhibitory ability against the drug efflux pump, the proliferation of bacteria is suppressed by the combined use of EM or LVFX and the test compound, as compared with the case where EM or LVFX is used alone.
A mutant strain (hereinafter, referred to as an “mexB (EC) strain”) obtained by transferring the genes of the main multidrug efflux system MexAB-OprM of Pseudomonas aeruginosa described in Nature, 2013, Vol. 500, pp. 102 to 106 as a plasmid into Escherichia coli strains in which the acrB and tolC genes of the multidrug efflux system AcrAB-TolC were deleted as described in Journal of Infection and Chemotherapy 2008, Vol. 14, pp. 23 to 29, and a gene transfer strain (hereinafter, referred to as an “mexY (EC) strain”) of another main multidrug efflux system MexXY-OprM of Pseudomonas aeruginosa were used for the evaluation of test compounds.
In the mexB (EC) strain, an expression level of MexB of the drug efflux pump is accelerated, and in the mexY (EC) strain, an expression level of MexY of the drug efflux pump is accelerated.
For culturing each Escherichia coli strain, a 96-well plate (amount of culture medium per well: 100 μL) was used and Luria-Bertani broth (LB) culture medium was used. The inoculation amount of the bacteria was set to 10^4 to 5 CFU/well.
The mexB (EC) strain and the mexY (EC) strain were cultured for 16 to 20 hours in a culture medium to which EM or LVFX and test compounds at various concentrations (0 to 800 μM) were added, and the proliferation of the bacterial strains was evaluated by optical turbidity at 595 nm (OD595). The concentration of the antibacterial agents (EM and LVFX) in the culture medium were each set to ¼ of the minimum inhibitory concentration (MIC) (hereinafter, referred to as ¼ MIC) of the single antibacterial agent.
The proliferation of bacteria in a case where the antibacterial agent was added at the concentration of ¼ MIC in a case where the test compound was not added was measured, and compared with the proliferation of bacteria in a case where the test compound was contained, and the lowest concentration of the test compound at which the proliferation was inhibited by 75% or more was defined as the drug efflux pump inhibitory ability of the test compound as 75% inhibitory effect concentration (EC75).
The drug efflux pump inhibitory ability of each test compound in a case of being used in combination with the antibacterial agent against the mexB (EC) strain and the mexY (EC) strain was evaluated as follows according to the value of EC75. • S: EC75≤[…] • A: 12.5 μM<EC75≤25 μM • B: 25 μM<EC75≤100 μM • C: […]
In the same manner as in Test Example 1, the efflux ability inhibition effect of the test compound on the drug efflux pump was evaluated using the bacterial proliferation ability in the presence of EM or LVFX as an index.

mexB (PA) strain = assay: Combinational effect with antibacterial agent against Pseudomonas aeruginosa (Test Examples 2 and 4): mexB (PA) strain with LVFX, TC or AZT at 1/4 MIC, EC99; assay type: cell-based; conditions: Table 52, Test Example 2, 16 to 20 hours culture, OD595; for EC99, mexB (PA), AZT: combined with AZT at 1/4 MIC; for EC99, mexB (PA), LVFX: combined with LVFX at 1/4 MIC
Method in brief: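 EC99 denotes the minimum test-compound concentration (range 0–800 μM) that suppresses ≥99% of growth, measured by OD595, when combined with ¼ MIC levofloxacin (LVFX), tetracycline or aztreonam. The efflux-pump mutant mexB (PA), expressing mainly MexAB-OprM, was inoculated at 10^4–5 CFU/well in CAMHB for 16–20 h.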

SMILES	EC75, mexY (EC) strain, EM (mexY (EC) strain)	EC75, mexY (EC) strain, LVFX (mexY (EC) strain)	EC99, mexB (PA), AZT (mexB (PA) strain)	EC99, mexB (PA), LVFX (mexB (PA) strain)
CCOc1cccc(F)c1CN1CCN(C(=O)[C@H](N)C2CCN(CCC3CCCC3)CC2)CC1 [Example 41, Hydrobromide of (R)-2-amino-2-(1-(2-cyclopentylethyl)piperidin-4-yl)-1-(4-(2-ethoxy-6-fluorobenzyl)piperazin-1-yl) ethan-1-one]	A (12.5 μM<EC75≤25 μM)	A (12.5 μM<EC75≤25 μM)	–	–
CCOc1cccc(F)c1CN1CCN(C(=O)[C@H](N)C2CCN(CCC3CCCCC3)CC2)CC1 [Example 47, Hydrobromide of (R)-2-amino-2-(1-(2-cyclohexylethyl)piperidin-4-yl)-1-(4-(2-ethoxy-6-fluorobenzyl)piperazin-1-yl)ethan-1-one]	A (12.5 μM<EC75≤25 μM)	A (12.5 μM<EC75≤25 μM)	–	–
CCOc1cccc(F)c1CN1CCN(C(=O)[C@H](N)C2CCN(CC(F)c3ccccc3)CC2)CC1 (stereo partly drawn) [Example 59, Hydrobromide of (2R)-2-amino-1-(4-(2-ethoxy-6-fluorobenzyl)piperazin-1-yl)-2-(1-(2-fluoro-2-phenylethyl)piperidin-4-yl) ethan-1-one]	B (25 μM<EC75≤100 μM)	B (25 μM<EC75≤100 μM)	–	–
CCOc1cccc(F)c1CN1CCN(C(=O)[C@H](N)C2CCN(CCc3cc(Cl)ccc3-c3ccccc3C#N)CC2)CC1 [Example 64, Hydrobromide of (R)-2′-(2-(4-(1-amino-2-(4-(2-ethoxy-6-fluorobenzyl)piperazin-1-yl)-2-oxoethyl)piperidin-1-yl)ethyl)-4′-chloro-[1,1′-biphenyl]-2-carbonitrile]	A (12.5 μM<EC75≤25 μM)	–	–	–
CCOc1cccc(F)c1CN1CCN(C(=O)[C@H](N)C2CCN(CCC34CC5CC(CC(C5)C3)C4)CC2)CC1 [Example 125]	A (12.5 μM<EC75≤25 μM)	–	–	–
CCOc1cccc(F)c1CN1CCN(C(=O)[C@H](N)C2CCN(CCC3(C)CCCCC3)CC2)CC1 [Example 126, Hydrochloride of (R)-2-amino-1-(4-(2-ethoxy-6-fluorobenzyl)piperazin-1-yl)-2-(1-(2-(1-methylcyclohexyl)ethyl)piperidin-4-yl)ethan-1-one]	A (12.5 μM<EC75≤25 μM)	A (12.5 μM<EC75≤25 μM)	–	–
COc1ccccc1CN1CCN(C(=O)[C@H](NCc2ccccc2)C2CCN(CCc3cccc(Cl)c3)CC2)CC1 [Example 142, hydrochloride of (R)-2-(benzylamino)-2-(1-(3-chlorophenethyl)piperidin-4-yl)-1-(4-(2-methoxybenzyl)piperazin-1-yl)ethan-1-one]	B (25 μM<EC75≤100 μM)	B (25 μM<EC75≤100 μM)	–	–
O=C(CN1CCN(CCc2ccccc2)CC1)N1CCN(CC2CCCCC2)CC1 [Example 210, Hydrochloride of 1-(4-(cyclohexylmethyl)piperazin-1-yl)-2-(4-phenethylpiperazin-1-yl)ethan-1-one]	B (25 μM<EC75≤100 μM)	–	–	–
O=C(CN1CCN(CCc2ccccc2)CC1)N1CCN(Cc2c(O)cccc2Cl)CC1 [Example 229, Hydrochloride of 1-(4-(2-chloro-6-hydroxybenzyl)piperazin-1-yl)-2-(4-phenethylpiperazin-1-yl)ethan-1-one]	B (25 μM<EC75≤100 μM)	B (25 μM<EC75≤100 μM)	B (25 μM<EC99≤100 μM)	B (25 μM<EC99≤100 μM)
O=C(CN1CCN(CCc2ccccc2)CC1)N1CCN(Cc2cccc3ccccc23)CC1 [Example 238]	B (25 μM<EC75≤100 μM)	B (25 μM<EC75≤100 μM)	B (25 μM<EC99≤100 μM)	B (25 μM<EC99≤100 μM)
COc1ccccc1CN1CCN(C(=O)CN2CCN(CCc3cccc(Cl)c3)CC2)CC1 [Example 272, 2-(4-(3-chlorophenethyl)piperazin-1-yl)-1-(4-(2-methoxybenzyl)piperazin-1-yl)ethan-1-one]	B (25 μM<EC75≤100 μM)	B (25 μM<EC75≤100 μM)	S (EC99≤12.5 μM)	S (EC99≤12.5 μM)
COc1ccccc1CN1CCN(C(=O)CN2CCN(CCc3ccc(F)cc3)CC2)CC1 [Example 277, 2-(4-(4-Fluorophenethyl)piperazin-1-yl)-1-(4-(2-methoxybenzyl)piperazin-1-yl) ethan-1-one and hydrochloride thereof]	B (25 μM<EC75≤100 μM)	B (25 μM<EC75≤100 μM)	B (25 μM<EC99≤100 μM)	B (25 μM<EC99≤100 μM)
COc1ccccc1CN1CCN(C(=O)CN2CCN(CCc3ccoc3)CC2)CC1 [Example 291, 2-(4-(2-(Furan-3-yl)ethyl)piperazin-1-yl)-1-(4-(2-methoxybenzyl)piperazin-1-yl)ethan-1-one and hydrochloride thereof]	B (25 μM<EC75≤100 μM)	–	–	–
COc1ccccc1CN1CCN(C(=O)C(F)(F)C2CCN(CCc3ccccc3)CC2)CC1 [Example 299, hydrochloride of 2,2-difluoro-1-(4-(2-methoxybenzyl)piperazin-1-yl)-2-(1-phenethylpiperidin-4-yl)ethan-1-one]	B (25 μM<EC75≤100 μM)	B (25 μM<EC75≤100 μM)	–	–
COc1ccccc1CN1CCN(C(=O)CN2CCC(/C=C/c3ccccc3)CC2)CC1 [Example 400, hydrochloride of (E)-1-(4-(2-methoxybenzyl)piperazin-1-yl)-2-(4-styrylpiperidin-1-yl)ethan-1-one]	B (25 μM<EC75≤100 μM)	B (25 μM<EC75≤100 μM)	A (12.5 μM<EC99≤25 μM)	S (EC99≤12.5 μM)
COc1ccccc1CN1CCN(C(=O)CN2CCC(CCc3ccccc3)(COCc3ccccc3)CC2)CC1 [Example 403, Hydrochloride of 2-(4-((benzyloxy)methyl)-4-phenethylpiperidin-1-yl)-1-(4-(2-methoxybenzyl)piperazin-1-yl)ethan-1-one]	–	B (25 μM<EC75≤100 μM)	S (EC99≤12.5 μM)	S (EC99≤12.5 μM)
COc1ccccc1CN1CCN(C(=O)CN2CCC(C#Cc3ccccc3)CC2)CC1 [Example 405, Hydrochloride of 1-(4-(2-methoxybenzyl)piperazin-1-yl)-2-(4-(phenylethynyl)piperidin-1-yl)ethan-1-one]	B (25 μM<EC75≤100 μM)	B (25 μM<EC75≤100 μM)	B (25 μM<EC99≤100 μM)	A (12.5 μM<EC99≤25 μM)
COc1ccccc1CN1CCN(C(=O)CN2CCC(C(=O)Nc3ccccc3)CC2)CC1 [Example 408, Hydrochloride of 1-(2-(4-(2-methoxybenzyl)piperazin-1-yl)-2-oxoethyl)-N-phenylpiperidine-4-carboxamide]	B (25 μM<EC75≤100 μM)	B (25 μM<EC75≤100 μM)	–	–
COc1ccccc1CN1CCN(C(=O)CN2CCC(CCc3ccccc3)(NC(N)=O)CC2)CC1 [Example 416, hydrochloride of 1-(1-(2-(4-(2-methoxybenzyl)piperazin-1-yl)-2-oxoethyl)-4-phenethylpiperidin-4-yl)urea]	B (25 μM<EC75≤100 μM)	B (25 μM<EC75≤100 μM)	–	–
